The values below come from patent US8772323B2, “Benzoxazole- and tetrahydrobenzoxazole-substituted pyridazinones as GPR119 agonists” (Boehringer Ingelheim International GmbH, priority 2010, dated 2014).

human GPR119, sequence (Q8TDV5 whole entry): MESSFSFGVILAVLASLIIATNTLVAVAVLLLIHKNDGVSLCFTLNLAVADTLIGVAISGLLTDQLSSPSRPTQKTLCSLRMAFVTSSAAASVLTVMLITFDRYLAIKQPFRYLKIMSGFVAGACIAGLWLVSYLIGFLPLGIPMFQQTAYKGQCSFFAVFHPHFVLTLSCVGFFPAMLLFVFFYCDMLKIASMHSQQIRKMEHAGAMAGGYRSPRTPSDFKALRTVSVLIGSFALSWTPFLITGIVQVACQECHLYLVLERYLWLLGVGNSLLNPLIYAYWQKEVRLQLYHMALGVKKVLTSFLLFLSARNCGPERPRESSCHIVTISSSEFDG

In the experiment the target is human GPR119 (Homo sapiens (Human), UniProt Q8TDV5). The experiment can be described thus: AlphaScreen cAMP assay in Min-6/hGPR119 cells (GPR119 activation, intracellular cAMP). It is filed as cell-based. To be noted: MIN6 cells stably transfected with human GPR119; 45 minutes' incubation at RT; AlphaScreen cAMP Assay Kit. In a few lines:
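MIN6 cells stably expressing human GPR119 plated 10000 cells/well and held 24 h at 37° C. Compounds applied in stimulating buffer, pH 7.4, with 0.5 mM IBMX, 0.1% BSA, 1% DMSO final, for 45 min at RT. Intracellular cAMP read by AlphaScreen.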
(Bead proximity is the source of the signal in Alpha formats.)
For orientation: EC50 means the concentration giving half of the maximal effect. A higher EC50 goes with weaker potency. Take `CCC1CC(=O)NN=C1c1ccc2nc(-c3ccc(OCCN4CCN(C(C)=O)CC4)cc3)oc2c1` (centres unmarked) [Example 162, 6-(2-{4-[2-(4-acetyl-piperazin-1-yl)-ethoxy]-phenyl}-benzoxazol-6-yl)-5-ethyl-4,5-dihydro-2H-pyridazin-3-one]: the EC50 was 9120 nM. Regarding `CCC1CC(=O)NN=C1c1ccc2nc(-c3ccc(OCCN4CCC(C#N)CC4)cc3)oc2c1` (centres unmarked) [Example 163, 1-(2-{4-[6-(4-ethyl-6-oxo-1,4,5,6-tetrahydro-pyridazin-3-yl)-benzoxazol-2-yl]-phenoxy}-ethyl)-piperidin-4-carbonitrile], the response was half-maximal at 97 nM (EC50). This EC50 lies about 94-fold lower than the previous one. As for `CCC1CC(=O)NN=C1c1ccc2nc(-c3ccc(OCCN4C[C@H]5CC[C@@H]4C5)cc3)oc2c1` (some centres unmarked) [Example 164, 6-(2-{4-[2-(2-aza-bicyclo[2.2.1]-hept-2-yl)-ethoxy]-phenyl}-benzoxazol-6-yl)-5-ethyl-4,5-dihydro-2H-pyridazin-3-one], the figure is 552 nM.

`CCC1CC(=O)NN=C1c1ccc2nc(-c3ccc(OCCN4CCN(C(=O)OC(C)(C)C)CC4)cc3)oc2c1` (centres unmarked) [Example 165, terl-butyl 4-(2-{4-[6-(4-ethyl-6-oxo-1,4,5,6-tetrahydro-pyridazin-3-yl)-benzoxazol-2-yl]-phenoxy}-ethyl)-piperazine-1-carboxylate] yielded an EC50 of 118 nM. This EC50 is about 4.7-fold lower than that of the molecule before.

`CCC1CC(=O)NN=C1c1ccc2nc(-c3ccc(OCCN4CCN(C(C)CC)CC4)cc3)oc2c1` (centres unmarked) [Example 166, 6-(2-{4-[2-(4-sec-butyl-piperazin-1-yl)-ethoxy]-phenyl}-benzoxazol-6-yl)-5-ethyl-4,5-dihydro-2H-pyridazin-3-one] showed an EC50 of 621 nM. Next, `CCC1CC(=O)NN=C1c1ccc2nc(-c3ccc(OCCN4CCCC4=O)cc3)oc2c1` (centres unmarked) [Example 167, 5-ethyl-6-(2-{4-[2-(2-oxo-pyrrolidin-1-yl)-ethoxy]-phenyl}-benzoxazol-6-yl)-4,5-dihydro-2H-pyridazin-3-one]: 1030 nM; `CCC1CC(=O)NN=C1c1ccc2nc(-c3ccc(OCCN4CCN(C(C)C)CC4)cc3)oc2c1` (centres unmarked) [Example 168, 5-ethyl-6-(2-{4-[2-(4-isopropyl-piperazin-1-yl)-ethoxy]-phenyl}-benzoxazol-6-yl)-4,5-dihydro-2H-pyridazin-3-one]: 3010 nM. Next, `CCC1CC(=O)NN=C1c1ccc2nc(-c3ccc(C(C)C)cc3)oc2c1` (centres unmarked) [Example 175, 5-ethyl-6-[2-(4-isopropyl-phenyl)-benzoxazol-6-yl]-4,5-dihydro-2H-pyridazin-3-one]: 462 nM. Molecule `CCC1CC(=O)NN=C1c1ccc2nc(-c3ccc(OC4CCCC4)cc3)oc2c1` (centres unmarked) [Example 176, 6-[2-(4-cyclopentyloxy-phenyl)-benzoxazol-6-yl]-5-ethyl-4,5-dihydro-2H-pyridazin-3-one] registered an EC50 of 82 nM. Against the preceding molecule, the EC50 is about 5.6-fold lower. As for `CCC1CC(=O)NN=C1c1ccc2nc(-c3ccc(N4CCOCC4)cc3)oc2c1` (centres unmarked) [Example 177, 5-ethyl-6-[2-(4-morpholin-4-yl-phenyl)-benzoxazol-6-yl]-4,5-dihydro-2H-pyridazin-3-one], the figure is 134 nM; as for `CCC1CC(=O)NN=C1c1ccc2nc(-c3ccc(C(C)OC)cc3)oc2c1` (centres unmarked) [Example 180, 5-ethyl-6-{2-[4-(1-methoxy-ethyl)-phenyl]-benzoxazol-6-yl}-4,5-dihydro-2H-pyridazin-3-one], 290 nM; as for `CCC1CC(=O)NN=C1c1ccc2nc(-c3ccc(OC4CCOC4)cc3)oc2c1` (centres unmarked) [Example 181, 5-ethyl-6-{2-[4-(tetrahydro-furan-3-yloxy)-phenyl]-benzoxazol-6-yl}-4,5-dihydro-2H-pyridazin-3-one], 156 nM. As for `CCC[C@H]1C(=O)NN=C(c2ccc3nc(-c4ccco4)oc3c2)[C@@H]1C` [Example 188, trans-6-(2-uran-2-yl-benzoxazol-6-yl)-5-methyl-4-propyl-4,5-dihydro-2H-pyridazin-3-one], the figure is 83 nM. On to `CC[C@@H]1CC(=O)NN=C1c1ccc2nc(-c3ccc(OC)cc3)oc2c1` [Example 190, (5R)-5-ethyl-6-[2-(4-methoxyphenyl)-1,3-benzoxazol-6-yl]-2,3,4,5-tetrahydropyridazin-3-one], for which a half-maximal response (EC50) required 79 nM. This EC50 and that of the molecule before are within 1.5-fold of each other. Next, `CC[C@@H]1CC(=O)NN=C1c1ccc2nc(-c3ccc(N(C)C)cc3)oc2c1` [Example 191, (5R)-6-{2-[4-(dimethylamino)phenyl]-1,3-benzoxazol-6-yl}-5-ethyl-2,3,4,5-tetrahydropyridazin-3-one]: 41 nM; `CC[C@H]1CC(=O)NN=C1c1ccc2nc(-c3ccc(OC(C)C)cc3)oc2c1` [Example 192, (S)-5-ethyl-6-[2-(4-isopropoxy-phenyl)-benzoxazol-6-yl]-4,5-dihydro-2H-pyridazin-3-one]: 6060 nM; `CC[C@@H]1CC(=O)NN=C1c1ccc2nc(-c3ccc(OC(C)C)cc3)oc2c1` [Example 193, (R)-5-ethyl-6-[2-(4-isopropoxy-phenyl)-benzoxazol-6-yl]-4,5-dihydro-2H-pyridazin-3-one]: 30 nM.

As to `CC[C@H]1CC(=O)NN=C1c1ccc2nc(-c3ccc(OC4CCOCC4)cc3)oc2c1` [Example 194, (S)-5-ethyl-6-{2-[4-(tetrahydro-pyran-4-yloxy)-phenyl]-benzoxazol-6-yl}-4,5-dihydro-2H-pyridazin-3-one], a half-maximal response (EC50) required 333 nM. As for `CC[C@@H]1CC(=O)NN=C1c1ccc2nc(-c3ccc(OC4CCOCC4)cc3)oc2c1` [Example 195, (R)-5-ethyl-6-{2-[4-(tetrahydro-pyran-4-yloxy)-phenyl]-benzoxazol-6-yl}-4,5-dihydro-2H-pyridazin-3-one], the figure is 51 nM; as for `CCC[C@H]1C(=O)NN=C(c2ccc3nc(-c4ccccc4)oc3c2)[C@@H]1C` [Example 196, (4R,5R)-5-methyl-6-(2-phenyl-1,3-benzoxazol-6-yl)-4-propyl-2,3,4,5-tetrahydropyridazin-3-one], 39 nM; as for `CCC1CC(=O)NN=C1c1ccc2nc(-c3cccc(OCCN4CCCC4)c3)oc2c1` (centres unmarked) [Example 201, 5-ethyl-6-{2-[3-(2-pyrrolidin-1-yl-ethoxy)-phenyl]-benzoxazol-6-yl}-4.5-dihydro-2H-pyridazin-3-one], 3030 nM. Next, `CC[C@@H]1CC(=O)NN=C1N1CCc2nc(-c3ccccc3)oc2C1` [Example 202, (5R)-5-ethyl-6-{2-phenyl-4H,5H,6H,7H-pyrido[4.3-d][1.3]oxazol-5-yl}-2,3,4,5-tetrahydropyridazin-3-one]: 133 nM; `CCC[C@@H]1C(=O)NN=C(c2ccc3nc(-c4ccc(O)cc4)oc3c2)[C@H]1C` [Example 203]: 962 nM. In turn, `O=c1ccc(-c2ccc3nc(-c4ccccc4)oc3c2)n[nH]1` [Example 204, 6-(2-phenyl-1,3-benzoxazol-6-yl)-2,3-dihydropyridazin-3-one] returned an EC50 of 414 nM. This EC50 is about 2.3-fold lower than that of the molecule before.

On to `CCC1OC(=O)NN=C1N1CCc2nc(-c3ccccc3)oc2C1` (centres unmarked) [Example 205, 6-ethyl-5-(2-phenyl-6,7-dihydro-4H-oxazolo[5,4-c]pyridin-5-yl)-3,6-dihydro-[1,3,4]oxadiazin-2-one], for which the EC50 is 50 nM. Against the preceding molecule, the EC50 is about 8.3-fold lower. Next, `CC[C@H]1OC(=O)NN=C1N1CCc2nc(-c3ccccc3)oc2C1` [Example 206, (R)-6-ethyl-5-(2-phenyl-6,7-dihydro-4H-oxazolo[5,4-c]pyridin-5-yl)-3,6-dihydro-[1.3.4]oxadiazin-2-one]: 27 nM. The molecule `CC[C@@H]1OC(=O)NN=C1N1CCc2nc(-c3ccccc3)oc2C1` [Example 207, (S)-6-ethyl-5-(2-phenyl-6,7-dihydro-4H-oxazolo[5,4-c]pyridin-5-yl)-3,6-dihydro-[1.3.4]oxadiazin-2-one] showed an EC50 of 578 nM. Compared with the last molecule, the EC50 is about 21-fold higher. As for `CC[C@H]1C(c2ccc3nc(-c4ccc(OC(C)C)cc4)oc3c2)=NNC(=O)[C@@H]1C` [Example 208, (4R,5R)-5-ethyl-4-methyl-6-{2-[4-(propan-2-yloxy)phenyl]-1,3-benzoxazol-6-yl}-2,3,4,5-tetrahydropyridazin-3-one], the figure is 88 nM; as for `CCC1CC(=O)NN=C1c1ccc2nc(-c3ccc(OCC(C)N4CCCC4)cc3)oc2c1` (centres unmarked) [Example 209, 5-ethyl-6-{2-[4-(2-pyrrolidin-1-yl-propoxy)-phenyl]-benzoxazol-6-yl}-4,5-dihydro-2H-pyridazin-3-one], 311 nM; as for `CCC1CC(=O)NN=C1c1ccc2nc(-c3ccc(OC(C)CN4CCCC4)cc3)oc2c1` (centres unmarked) [Example 210, 5-ethyl-6-[2-(4-{[1-(pyrrolidin-1-yl)propan-2-yl]oxy}phenyl)-1,3-benzoxazol-6-yl]-2,3,4,5-tetrahydropyridazin-3-one], 590 nM.

As for `CCC1CC(=O)NN=C1c1ccc2nc(-c3ccc(OCC(C)O)cc3)oc2c1` (centres unmarked) [Example 211, 5-ethyl-6-{2-[4-(2-hydroxy-propoxy)-phenyl]-benzoxazol-6-yl}-4,5-dihydro-2H-pyridazin-3-one], the EC50 was found to be 395 nM.

For the molecule `CCC1CC(=O)NN=C1c1ccc2nc(-c3ccc(OC4CCCCC4O)cc3)oc2c1` (centres unmarked) [Example 212, 5-ethyl-6-(2-{4-[(2-hydroxycyclohexyl)oxy]phenyl}-1,3-benzoxazol-6-yl)-2,3,4,5-tetrahydropyridazin-3-one], a half-maximal response (EC50) required 108 nM. As for `C=CCOc1ccc(-c2nc3ccc(C4=NNC(=O)CC4CC)cc3o2)cc1` (centres unmarked) [Example 213, 6-[2-(4-allyloxy-phenyl)-benzoxazol-6-yl]-5-ethyl-4,5-dihydro-2H-pyridazin-3-one], the figure is 241 nM. Regarding `CCC1CC(=O)NN=C1c1ccc2nc(-c3ccc(OCCOC)cc3)oc2c1` (centres unmarked) [Example 214, 5-ethyl-6-{2-[4-(2-methoxy-ethoxy)-phenyl]-benzoxazol-6-yl}-4,5-dihydro-2H-pyridazin-3-one], it took 122 nM to reach a half-maximal effect (EC50). Compared with the last molecule, the EC50 is about 2-fold lower. As for `CCC1CC(=O)NN=C1c1ccc2nc(-c3ccc(OCCN(CC)C(C)C)cc3)oc2c1` (centres unmarked) [Example 215, 5-ethyl-6-(2-{4-[2-(ethyl-isopropyl-amino)-ethoxy]-phenyl}-benzoxazol-6-yl)-4,5-dihydro-2H-pyridazin-3-one], the figure is 106 nM.
